Consider two compounds from US20200030278A1, “PHARMACEUTICAL COMPOSITIONS OF METAP-2 INHIBITORS” (Zafgen, Inc., priority 2017, published 2020).

Data set [1] has as its system plasma proteins. The experiment in a line: Protein binding in rat plasma (dialysis). Particulars: plasma; rat, summary over concentrations; read-out: bound to plasma proteins. In kind it is in vitro ADME.
For data set [2], the system named is plasma proteins. Kind of data set: Plasma protein binding, summary over species. In kind it is in vitro ADME. Particulars: species not specified.
Data set [3] can be described thus: Pharmacokinetics after intravenous infusion in humans. The note with it: Human, 30-minute IV Infusion, 2.0 mg (0.9 mg/m^2). In kind it is in vivo.
The nature of data set [4]: Major metabolites in rats dosed SC. In kind it is in vivo.

`CO[C@@H]1[C@H](OC(=O)N2CC(CCN3CCOCC3)C2)CC[C@]2(CO2)[C@H]1[C@@]1(C)O[C@@H]1CC=C(C)C` [Compound A]: the fraction unbound at 4 h in data set [1] lay in the range of 0.3 to 0.6. The fraction bound to plasma proteins in data set [2] was in the range of 0.3 to 0.7.

As a reminder, the AUC(0-inf) is the area under the concentration-time curve extrapolated to infinity. A higher AUC(0-inf) goes with more exposure. A word on the clearance: it is the volume of plasma or blood freed of the substance per unit of time. A low value points to inefficient removal. Usually half-life stands for the time needed for the level to fall by half in the phase considered. As for `CO[C@@H]1[C@H](OC(=O)/C=C/c2ccc(OCCN(C)C)cc2)CC[C@]2(CO2)[C@H]1[C@@]1(C)O[C@@H]1CC=C(C)C` [beloranib, reference compound], in data set [3], the kel was 0.120 ± 0.070 h⁻¹. Also, in data set [3] (in vivo), the AUC(0-inf) is 5.82 ± 2.46 ng·h/mL, the clearance is 64.5 mL/min/kg and the half-life was 7.06 ± 2.66 h. Besides, the Vd in data set [3] (in vivo, read-out: Vdss) is 25.4 ± 19.2 L/kg. The “pathway giving the major metabolites observed” value in data set [4] is “GSH conjugation and subsequent metabolic degradation of the GSH conjugates”.
